In data set [1] the target is human BACE1 (Homo sapiens, UniProt P56817). The experiment in a line: BACE1 fluorescent kinetic assay (cleavage of peptide substrate WABC-6). As to conditions: Activity Table, Examples 1-108; 10 nM enzyme, 25 μM substrate WABC-6, pH 4.5, room temperature. The data set is classed as biochemical. Here is the method: Evaluation of BACE1 Binding Affinity of Test Compounds
Fluorescent Kinetic Assays
Dilution and mixing steps: total reaction volume: 100 μL
100 μM substrate dilution in 1×PBS was prepared, and
Fluorescence Readings: Readings at λex 320 nm and λem 420 nm are taken every 40 sec for 30 min at room temperature and the linear slope for substrate cleavage rate (vi) determined.

Structures are written as SMILES. Bounds are passed on as bounds.

Sequence of human BACE1 (P56817 46-501): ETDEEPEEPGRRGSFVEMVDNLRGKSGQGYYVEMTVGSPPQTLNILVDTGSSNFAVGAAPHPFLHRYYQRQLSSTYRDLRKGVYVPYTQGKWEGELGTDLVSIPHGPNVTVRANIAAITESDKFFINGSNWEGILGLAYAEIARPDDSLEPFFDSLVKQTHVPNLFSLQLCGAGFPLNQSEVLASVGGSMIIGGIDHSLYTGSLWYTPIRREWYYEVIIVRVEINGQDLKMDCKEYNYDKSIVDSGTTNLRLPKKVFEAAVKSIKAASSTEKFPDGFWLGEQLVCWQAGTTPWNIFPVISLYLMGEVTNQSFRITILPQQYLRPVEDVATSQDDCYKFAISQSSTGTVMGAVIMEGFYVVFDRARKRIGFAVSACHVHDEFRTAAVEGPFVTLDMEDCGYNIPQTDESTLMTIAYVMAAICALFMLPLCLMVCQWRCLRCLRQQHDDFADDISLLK

A word on the IC50: it is the concentration needed to halve the response being measured. A low value points to inhibition by little substance. A word on the melting point: it is the temperature, or range, at which the solid turns liquid. Take `Cc1cc(C2(c3ccc(OC(F)F)cc3)N=C(N)N(C)C2=O)ccc1F` (stereo not shown) [Example 15, 2-Amino-5-(4-difluoromethoxy-phenyl)-5-(4-fluoro-3-methyl-phenyl)-3-methyl-3,5-dihydro-imidazol-4-one]: the melting point stood at 70 °C. This molecule displayed an IC50 in data set [1] of 110 to 1000 nM.

Take `CN1C(=O)C(c2ccc(OC(F)F)cc2)(c2cccc(OCCCF)c2)N=C1N` (stereo not shown) [Example 82, 2-Amino-5-[4-(difluoromethoxy)phenyl]-5-[3-(3-fluoropropox-1-yl)phenyl]-3-methyl-3,5-dihydro-4H-imidazol-4-one]: the melting point is 161 to 162 °C. The IC50 in data set [1] is under 100 nM.
